Data set [1] relates to A549 cells. Put plainly: A549 live cell count, trypan blue. In kind it is cell-based, human. The following applies: 48 h, live cells counted. The procedure:
(§1) (A) Inhibitory effect of CREB-mediated gene transcription by compounds i and ii in HEK 293 cells. Cells were transiently transfected with a plasmid encoding firefly luciferase under the control of three iterative copies of CRE (pCRE-Luc). Compound i or ii was added to the transfected cells in triplicate 30 min prior to the addition of forskolin (Fsk, 10 μM). The luciferase activity was measured using Dual Luciferase Reagent (Promega) and normalized to the co-transfected renilla luciferase (pRL-SV40, Promega). (B) Exponentially growing A549 cells in a 6-well plate (1.5×10^5 cells/well) were treated increasing concentrations of compound i or ii in triplicate for 48 h. […] Data were presented as mean±SD.
(§2) To investigate whether apoptosis was activated upon treatment, A549 cells were treated with either naphthol AS-E phosphate (i, 10 μM) or naphthol AS-E (ii, 10 μM) for 48 h. The cells were then analyzed by flow cytometry after staining with annexin-V and propidium iodide (PI). In this two-dye binding assay, annexin-V will bind phosphatidylserine exposed on the dying apoptotic cell surface while PI will only stain dead cells whose plasma-membrane integrity is compromised. This assay can discriminate intact cells (annexin^−/PI^−), apoptotic cells (annexin^+/PI^−) and necrotic or late apoptotic cells (annexin^+/PI^+).

Data set [2] concerns A549 cells. Put plainly: A549 apoptosis, annexin-V/PI flow cytometry and PARP cleavage. The following applies: for percentage of cells undergoing apoptosis: 10 μM, 48 h, vehicle 6.3%; for cleavage of poly (ADP-ribose) polymerase (PARP): A549 cells treated with compound. In kind it is cell-based, human. The method, then:
as §2
Background: In flow cytometry, cells or beads pass a laser one at a time.

The next data set has as its system primary rat neurons. The procedure: E18 rat neurons were isolated from Sprague-Dawley rats at 18 days after gestation. The isolated neurons were plated into a 6-well plate coated with poly-D-lysine. On day 5 after plating the neurons, different compounds of indicated concentrations were added (in triplicates) and incubated with the neurons for 48 h. Then the neurons were harvested and the number of live neurons was counted with a hemacytometer after staining with trypan blue. Data were presented as mean±SD.
CREB is a pleiotrophic factor involved in many different cellular processes including neuronal survival. The possibility of neuronal cell death might be a concern for CREB inhibitors in the future clinical applications if they could cross the blood brain barrier. Therefore, the toxicity of naphthol AS-E phosphate (i) or its active form, naphthol AS-E (ii), to primary rat neurons was investigated. Isolated E18 rat neurons were treated with increasing concentrations of naphthol AS-E phosphate (i) or naphthol AS-E (ii) for 48 h. […] At the end of the treatment, the neurons were collected and the number of live neurons were counted using trypan blue exclusion assay (FIG. 3).

In data set [3] the test system is CREB-mediated gene transcription. Put plainly: CRE firefly luciferase reporter assay in HEK 293 cells. The data set is classed as cell-based. The following applies: forskolin 10 μM, normalized to renilla luciferase. The procedure: as §1
In this assay, HEK 293 cells were transiently transfected with a luciferase reporter plasmid which expresses firefly luciferase under the control of three copies of CREB-response element (CRE). Additionally, an internal control plasmid constitutively expressing renilla luciferase was co-transfected to normalize transfection efficiency across the wells. The inhibition flirt-fly luciferase transcription seen in HEK 293 cells by compound i was not due to cell death because the firefly luciferase activity was normalized to renilla luciferase activity and the number of live cells after compound treatment was the same for all the different concentrations tested.

The nature of data set [4]: Hydrolysis of naphthol AS-E phosphate in tissue culture media (DMEM), HPLC.
Procedure: (A) Representative HPLC chromatograms of aliquots of the incubation mixture containing naphthol AS-E phosphate (i, 500 μM), 1-naphthalenemethanol (1 mM) and DMEM with 10% FBS at different time points. […] 1-Naphthalenemethanol was included as an internal standard. The minor peaks on the chromatograms are components from DMEM, which contains various amino acids, vitamins and carbohydrates. (B) Time-dependent increases of naphthol AS-E during the hydrolysis of naphthol AS-E phosphate. The data were extracted from the experiment presented in (A). The concentration of naphthol AS-E was determined based on the calibration curve shown in (C).
Napthol AS-E phosphate was incubated with tissue culture media (Dulbecco's Modified Eagle Medium, DMEM) containing 10% fetal bovine serum (FBS) at 37° C. along with an internal standard, 1-naphthalenemethanol. The hydrolysis of napthol AS-E phosphate was then monitored by reverse phase HPLC at various time points.
[5] abbreviates: E18 rat neurons, 48 h, naphthols up to 10 μM, CPT positive control.

SMILES strings stand for the structures. Like-named read-outs stand apart in the source and are kept apart here.

Take `O=C(Nc1ccc(Cl)cc1)c1cc2ccccc2cc1O` [naphthol AS-E]: in the data set with A549 cells [1], the A549 cell proliferation entry is given as “inhibited A549 cell proliferation”. Further, in the data set with A549 cells [2], the “percentage of cells undergoing apoptosis” value is 19.8% and the “cleavage of poly (ADP-ribose) polymerase (PARP)” value is given as “detected”. For the same compound, in the data set with primary rat neurons (setting [5]), the neuronal cell death result is reported as “no significant neuronal cell death”.

`CC[C@@]1(O)C(=O)OCc2c1cc1n(c2=O)Cc2cc3ccccc3nc2-1` [CPT, camptothecin]: the neuronal cell death result in the data set with primary rat neurons (setting [5]) is “killed most of the neurons”.

As to `O=C(Nc1ccc(Cl)cc1)c1cc2ccccc2cc1OP(=O)(O)O` [naphthol AS-E phosphate], in the data set with A549 cells [1], the A549 cell proliferation entry is recorded as “inhibited A549 cell proliferation”. In addition, the “inhibition of CREB-mediated gene transcription” value in data set [3] is “strongly inhibited”. For the same compound, the “hydrolysis of phosphate i to naphthol ii after 25-h incubation” value in data set [4] (DMEM with 10% FBS, 37° C.) is listed as “complete hydrolysis”. For the same compound, the “period of constant rate of increase of naphthol AS-E” value in data set [4] (DMEM with 10% FBS, initial zero-order kinetics) was > 8.5 h. In addition, the “hydrolysis in tissue culture media without FBS” value in data set [4] (DMEM without FBS, 24 h) is listed as “did not generate any hydrolysis product”. Moreover, in the data set on A549 cells [2], the “percentage of cells undergoing apoptosis” value is given as 22.7% and the “cleavage of poly (ADP-ribose) polymerase (PARP)” value was “detected”. For the same compound, the neuronal cell death entry in the data set on primary rat neurons is “no significant neuronal cell death”.

For the origin of these results see patent publication US8653086B2, “Naphthamides as anticancer agents” (Oregon Health & Science University, priority 2008, dated 2014).
